Assay results: patent publication US20090068158A1, “THYMIDYLATE KINASE MUTANTS AND USES THEREOF” (priority 2005, published 2009)

B1: F105Y+R200A: modified human tmpk combining mutations F105Y and R200A (protein, UniProt P23919 2-212, looked up, variant F105Y R200A)
Thymidylate kinase: AARRGALIVLEGVDRAGKSTQSRKLVEALCAAGHRAELLRFPERSTEIGKLLSSYLQKKSDVEDHSVHLLFSANRWEQVPLIKEKLSQGVTLVVDRYAFSGVAYTGAKENFSLDWCKQPDVGLPKPDLVLFLQLQLADAAKRGAFGHERYENGAFQERALRCFHQLMKDTTLNWKMVDASKSIEAVHEDIRVLSEDAIATATEKPLGELWK

Key:
Jurkat cells [1] = assay: HPLC determination of intracellular AZT metabolites in cells treated with 100 μM AZT; assay type: cell-based, human; settings: non-transduced Jurkat cells, 100 μM AZT for 36 h
Description: The cells were cultured in the presence of 100 μM AZT for 36 hrs. 10^7 cells were homogenized by sonication in 100 μl of 5% (w/v) trichloroacetic acid. The supernatant is collected after homogenate had been centrifuged at 10,000×g for 15 min at 4° C. The trichloroacetic acid was removed by extraction with an equal volume of 20% tri-n-octylamine in pentane. The neutralized aqueous fraction is directly injected into HPLC. Separation of AZT and its metabolites was performed on a C18 column (Waters) with a mobile phase composed of 0.2 M phosphate buffer containing 4 mM tetrabutylammonium hydrogen sulfate (pH 7.5) and acetonitrile in the ratio of 97:3 (v/v). The mobile phase was pumped at a flow rate of 1.5 ml/min. The UV absorbance was monitored at 270 nm. Five million cell equivalents were injected and analyzed in triplicate.
Cells were cultured in the presence of 100 μM AZT for 36 h. 10^7 cells were homogenized by sonication in 100 μl of 5% (w/v) trichloroacetic acid (TCA). The supernatant was collected after centrifugation at 10,000×g for 15 min at 4° C. TCA was removed by extraction with an equal volume of 20% tri-n-octylamine in pentane. The neutralized aqueous fraction was directly injected into the HPLC machine (Waters, Milford. MA). Separation of AZT and its metabolites were performed on a C18 column (Waters), with a mobile phase composed of 0.2 M phosphate buffer containing 4 mM tetrabutylammonium hydrogen sulfate (pH 7.5) and acetonitrile in the ratio of 97:3 (v/v)^48 at a flow rate of 1.5 ml/min. The UV absorbance was monitored at 270 nm. Standards for each AZT-metabolite (AZT-MP, AZT-DP, and AZT-TP) were purchased from Moravek Biochemicals (Brea, Calif.). Five million cell equivalents were injected and analyzed in triplicate.

Jurkat cells [2] = assay: AZT sensitivity in LV-TMPK (Lentigen) transduced Jurkat cells; assay type: cell-based, human; settings: increasing concentrations of AZT
Description: The function of tmpk was tested by assessing sensitivity to AZT (FIG. 21).

Jurkat cells [3] = assay: AZT sensitivity of LV-tmpk-transduced Jurkat cells (MTT cell viability assay); assay type: cell-based, human; settings: Homo sapiens, 120 h, LV-tmpk mutant transduced Jurkat cells, AZT 0-100 μM, 5 days, read-out: IC50 of AZT for killing of transduced cells
Description: Transduced Jurkat cells and the single-cell clones were seeded in 96 well plates (2×10^5/well) in 200 μl of medium containing increasing concentrations of AZT (0, 1, 10 and 100 μM). The medium was changed daily. […] Data are expressed as mean±standard error of mean (SEM).
To examine the AZT-mediated celikilling activity of tmpk cDNA, each of transduced cells were incubated with the increasing concentration of AZT. After incubating both non-transduced and LV-transduced cells with AZT for […], cell viability was determined using MTT assay (FIG. 4A).
Transduced Jurkat cells and single-cell clones were seeded in 96 well plates (2×10^5 cells/well) in 200 μl of the RPMI medium described above with increasing concentrations of AZT (0, 0.1, 1, 10, 100 μM, and 1 mM). The medium was changed daily. After 4 days of culture, cell viability was determined by using Cell Titer 96 Aqueous One Solution Cell Proliferation Assay kit (Promega, Madison, Wis.).

[4] = Enzymatic activity of tmpk mutants for AZT-MP; assay type: biochemical, human
[5] = relative to wild-type tmpk; cited from earlier work

| Molecule | intracellular ratio of AZT-TP to AZT-MP in non-transduced cells (Jurkat cells [1]) | AZT sensitivity of transduced cells (in words) (Jurkat cells [2]) | IC50 (Jurkat cells [3]) [nM] | enzymatic activity / catalytic conversion compared to wild-type tmpk (in words) [4] | enhanced activity for AZT-MP [5] |
| --- | --- | --- | --- | --- | --- |
| Cc1cn([C@H]2C[C@H](N=[N+]=[N-])[C@@H](CO)O2)c(=O)[nH]c1=O [AZT, Zidovudine, reference compound] | 0.02 | dose dependent killing | 2000 | – | – |
| B1 | – | – | – | superior enzymatic activity | approximately 200 fold |
